According to patent US6630128B1, “Porphyrin derivatives their use in photodynamic therapy and medical devices containing them” (Destiny Pharma Limited, priority 1999, dated 2003):
Like-named read-outs stand apart in the source and are kept apart here.

What was measured:
[1] = Singlet oxygen quantum yields (singlet oxygen phosphorescence at 1270 nm); format: physicochemical; details: for quantum yield of singlet oxygen production, ΦΔ (cross-calibration of reference materials): cross-calibrated against TPP ΦΔ=0.58, present work
Experimental: The singlet oxygen quantum yields were determined by the direct measurement of singlet oxygen phosphorescence at 1270 nm. Samples were excited using the third harmonic of a Q-switched Nd:YAG (neodymium: yttrium-aluminium-garnet) Spectra Physics GCR-150-10 laser, operating at an excitation wavelength of 355 nm. A small fraction of the laser output was passed through a solution state filter containing aqueous cobalt (II) sulphate (CoSO4) to remove residual 532 and 1064 nm radiation and then down a 8 mm diameter liquid light guide (Oriel). For the measurements the end of the light guide was held against a 1 cm×1 cm fluorescence cuvette (Hellma) holding the sample. During the course of the experiments the incident laser energy for each measurement was determined using a pyroelectric detector held behind the sample. This detector was calibrated at the start of the experiment using a second calibrated energy meter (Gentec ED100). The laser energy was adjusted by placing cells containing aqueous sodium nitrite between the CoSO4 filter and the light guide. Typical pulse energies used were in the range of 25-500 μJ per pulse. Shot to shot noise was estimated to be <10% and sets of 20 shots gave an average value within <3%.
Phosphorescence from the sample was collected and passed through an interference filter centred at 1270 nm available from (Infra Red Engineering Ltd) and then focused onto the active area of a liquid nitrogen cooled germanium photodiode (North Coast EO-817P). The output from this device was AC coupled to a digital oscilloscope (Tektronix TDS-320) which digitised and averaged the transients. Typically 20 laser shots were used for each sample. The averaged data was transferred to a PC where it was stored and analysed.
A stock solution of each of the title compounds of Examples 67 to 81 was prepared by dissolving a small sample of the respective title compound in approximately 5 ml of toluene (Fisher Scientific, Analytical grade). The exact concentrations of the stock solution was not determined.
A working solution of each of the title compounds of Examples 67 to 81 was prepared by diluting the respective stock solution with toluene to give an absorbance of 0.100±0.005 at 355 nm when placed in a ultraviolet/visible spectrometer (ATI-Unicam UV-2) compared to a reference cell containing the pure toluene solvent. The ultraviolet/visible spectrum of each sample was also recorded over the range 300-700 nm.
All of the data were recorded at ambient temperature, 20-23° C., and the solutions were aerated. The singlet oxygen emission decay was recorded for each sample using 5 laser energies and the data for each measurement were fitted to an exponential decay of the form I(t)=A.exp(−t/τ), where I(t) is the measured intensity of singlet oxygen phosphorescence at time t, A is the intensity extrapolated back to t=0 (ie when the laser fires), and τ is the lifetime of singlet oxygen. A typical decay for the title compound of Example 78 in toluene excited at 355 nm using a pulse energy of 365 μJ, where A=19.6 and τ=27.8 μs, is shown in FIG. 2.
A plot of A versus the incident laser energy was drawn for each sample and the slope determined. The slope of such a graph is proportional to the singlet oxygen quantum yield. An example of a plot showing the linear relationship between the singlet oxygen emission intensity and the laser energy for the title compound of Example 78 and meso-tetraphenylporphyrin (TPP) is shown in FIG. 3.
The experiments were carried out using batches of 5 samples of the working solution of each of the title compounds of 67 to 81 plus one reference sample meso-tetraphenylporphyrin (TPP). Each run was repeated at least once. The data sets obtained for each sample were within ±5% of the mean value.
The dominant sources of error in the experiment include the shot-to-shot fluctuations in the laser and the difference in absorbances of the samples at the excitation wavelength. The values have an error of ±10%. […]

[2] = Fluorescence quantum yields (corrected emission spectra, relative to TPP); format: physicochemical; details: excitation wavelength 355 nm, emission 550-800 nm
Experimental: Mass spectra were recorded on a Finnigan MAT TSQ 700 triple quadrupole mass spectrometer equipped with an […]. The matrix-assisted laser desorption/ionization mass spectra of the porphyrins were obtained using a dithranol matrix. FAB-MS spectra were obtained using a 3-nitrobenzyl alcohol (NOBA) matrix. ^1H-NMR spectra were measured at 60 MHz on a Jeol JNM-PMX60 spectrometer, at 270 MHz on a Jeol EX 270 spectrometer and at 300 MHx on a Varian Gemini-300 spectrometer in CDCl3 using TMS as an internal reference. Ultraviolet/visible spectra of solutions of compounds in tetrahydrofuran (THF) or toluene were measured using a Hitachi U-3000 spectrophotometer or a ATI-Unicam UV-2 spectrophotometer. Reflectance-absorbance infra red (RAIR) spectra were recorded on a BIO-RAD FTS 165 spectrophotometer. Fluorescence emission spectra were recorded using a Spex Fluorolog 3 spectrophotometer at an excitation wavelength of 355 nm, emission at 550 to 800 nm, with a bandpass of 2 nm.
The emission spectra were recorded using a Spex Fluorolog 3, excitation wavelength=355 nm, emission 550-800 nm, with a bandpass of 2 nm. A spectrum was recorded for each of the title compounds of Examples 67 to 81.
The fluorescence quantum yield for each of the title compounds of Examples 67 to 81 was determined by measuring the integral of the corrected emission spectra for each compound and calculated relative to TPP=0.11 (Handbook of Photochemistry Ed 2, Murov, Carmichael and Hug, Dekker 1993). The fluorescence quantum yield for each of the title compounds of Examples 67 to 81 are listed in Table 1; values for Zn TPP and Mg TPP are included in Table 1 for reference but they were not measured in this work.

[3] = reference values from Handbook of Photochemistry Ed 2; not measured in this work; cited from earlier work
[4] = literature values (Rossbroich et al. 1985; Wilkinson et al. 1993); cited from earlier work

SMILES	ΦΔ (singlet oxygen quantum yield) ([1]; aerated toluene, excitation 355 nm, 20-23° C., relative to TPP ΦΔ=0.58)	τ, lifetime of singlet oxygen ([1]; toluene, excited at 355 nm, pulse energy 365 μJ (FIG. 2)) [μs]	Quantum yield of fluorescence, relative to TPP = 0.11 [2]	Quantum yield of fluorescence, relative to TPP = 0.11 [3]	quantum yield of singlet oxygen production, ΦΔ, literature value [4]	quantum yield of singlet oxygen production, ΦΔ (cross-calibration of reference materials) [1]
C=CCCOCCCCCCCCCCCCOc1ccc(-c2c3nc(c(-c4cc(OCCCCCC)cc(OCCCCCC)c4)c4ccc([n-]4)c(-c4cc(OCCCCCC)cc(OCCCCCC)c4)c4nc(c(-c5cc(OCCCCCC)cc(OCCCCCC)c5)c5ccc2[n-]5)C=C4)C=C3)cc1.[Zn+2] [Example 78, 5-[4-(12-but-3-Enyloxy-dodecyloxy)-phenyl]-10,15,20-tris-(3,5-dihexyloxy-phenyl)-porphyrinato Zinc]	0.78 ± 0.08	27.8	0.04	–	–	–
C1=Cc2nc1c(-c1ccccc1)c1ccc([n-]1)c(-c1ccccc1)c1nc(c(-c3ccccc3)c3ccc([n-]3)c2-c2ccccc2)C=C1.[Mg+2] [Mg TPP, magnesium tetraphenylporphyrin]	–	–	–	0.15	–	–
C1=Cc2nc1c(-c1ccccc1)c1ccc([nH]1)c(-c1ccccc1)c1nc(c(-c3ccccc3)c3ccc([nH]3)c2-c2ccccc2)C=C1 [TPP, meso-tetraphenylporphyrin]	–	–	–	0.11	0.58	–
C1=Cc2nc1c(-c1ccccc1)c1ccc([n-]1)c(-c1ccccc1)c1nc(c(-c3ccccc3)c3ccc([n-]3)c2-c2ccccc2)C=C1.[Zn+2] [Zn TPP, zinc tetraphenylporphyrin]	–	–	–	0.04	0.73	0.77±0.07
[Zn+2].c1ccc2c(c1)-c1nc-2nc2[n-]c(nc3nc([n-]c4nc(n1)-c1ccccc1-4)-c1ccccc1-3)c1ccccc21 [zinc phthalocyanine, reference compound]	–	–	–	–	0.50	0.46±0.05
